Experimental findings from ChEMBL document CHEMBL2157869, “N'-substituted-2'-O,3'-N-carbonimidoyl bridged macrolides: novel anti-inflammatory macrolides without antimicrobial activity” (J Med Chem, 2012) are described below.

Values after ≈ are worked out from the molar mass of the structure shown. Active and inactive are the calls of the source. No cut-off for these calls is given here.

Data set [1] deals with Mus musculus. The data set is described as follows: Antiinflammatory activity in BALB/cJ mouse assessed as decrease in LPS-induced neutrophil number in bronchoalveolar lavage fluid at 200 mg/kg, ip administered 2 hrs prior to LPS challenge measured after 24 hrs post LPS challenge. The format is functional, organism-based. Conditions: Lung. More on the design: dose 200 mg/kg.

Data set [2] deals with Haemophilus influenzae. The data set is described as follows: Antibacterial activity against Haemophilus influenzae ATCC 49247 by CLSI broth microdilution method. The format is functional.
A short description of data set [3]: Cmax in cystic fibrosis patient plasma at 500 mg. Conditions: human. More on the design: dose 500 mg. The format is ADME, organism-based.
A short description of data set [4]: Antiinflammatory activity in mouse splenocytes assessed as inhibition of LPS-induced IL-6 production in mouse splenocytes at 25 uM preincubated for 2 hrs prior to LPS challenge by sandwich ELISA. The format is functional. The following applies: Splenocyte. A general note: An ELISA detects its analyte on a solid surface through an enzyme-linked reagent.
The subject of data set [5] is Mus musculus. Briefly: Antiinflammatory activity in BALB/cJ mouse assessed as decrease in LPS-induced total cell number in bronchoalveolar lavage fluid at 200 mg/kg, ip administered 2 hrs prior to LPS challenge measured after 24 hrs post LPS challenge. The format is functional, organism-based. Also noted: dose 200 mg/kg. The following applies: Lung.
Data set [6] can be described thus: Cmax in lung cancer patient epithelial lining fluid at 2 gram, po qd. The format is ADME, organism-based. More on the design: route oral. Conditions: human.
The nature of data set [7]: Cmax in cystic fibrosis patient blood at 500 mg. The class given is ADME, organism-based. Conditions: human, whole blood. Also noted: dose 500 mg.
Data set [8] is described as follows: Cytotoxicity against human THP1 cells assessed as cell viability at 50 uM after 24 hrs by MTT assay. The format is cell-based, THP-1. The following applies: read-out: Activity. On the technique in general: Tetrazolium dyes change colour on reduction, which living cells bring about.
A short description of data set [9]: Cmax in lung cancer patient serum at 2 gram, po qd. The format is ADME, organism-based. Also noted: route oral. Conditions: human.
Data set [10] has as its system Staphylococcus aureus. The data set is described as follows: Antibacterial activity against Staphylococcus aureus ATCC 13709 by CLSI broth microdilution method. The class given is functional. For orientation: Dilution methods test growth across graded concentrations, often in twofold steps.
The subject of data set [11] is Streptococcus pyogenes. The data set is described as follows: Antibacterial activity against Streptococcus pyogenes ATCC 700294 by CLSI broth microdilution method. The class given is functional.
A short description of data set [12]: Antiinflammatory activity in mouse splenocytes assessed as inhibition of LPS-induced IL-6 production at 12 uM preincubated for 2 hrs prior to LPS challenge by sandwich ELISA. The following applies: Splenocyte. The format is functional.
Data set [13] deals with Streptococcus pneumoniae. Briefly: Antibacterial activity against Streptococcus pneumoniae ATCC 49619 by CLSI broth microdilution method. The class given is functional.
A short description of data set [14]: Antiinflammatory activity in mouse splenocytes assessed as inhibition of LPS-induced IL-6 production at 50 uM preincubated for 2 hrs prior to LPS challenge by sandwich ELISA. The class given is functional. Conditions: Splenocyte.
Data set [15] has as its system Moraxella catarrhalis. Briefly: Antibacterial activity against Moraxella catarrhalis ATCC 23246 by CLSI broth microdilution method. The class given is functional.
Data set [16] has as its target Transcription factor Jun (Mus musculus) (UniProt P05627). Briefly: Inhibition of AP1-mediated mediated IL-1beta production in LPS-induced mouse pulmonary neutrophila model.
Data set [17] is described as follows: Clearance in BALB/cJ mouse at 5 mg/kg, iv and 25 mg/kg, po. Conditions: in vivo. The class given is ADME, organism-based.
The subject of data set [18] is Mus musculus. Briefly: Antiinflammatory activity in ip dosed BALB/cJ mouse assessed as decrease in LPS-induced neutrophil number in bronchoalveolar lavage fluid administered 2 hrs prior to LPS challenge measured after 24 hrs post LPS challenge. The format is functional, organism-based. Conditions: Lung.
The target of data set [19] is T1, Cytochrome P450 3A4 (Homo sapiens, UniProt P08684).
T1 sequence (P08684 whole entry): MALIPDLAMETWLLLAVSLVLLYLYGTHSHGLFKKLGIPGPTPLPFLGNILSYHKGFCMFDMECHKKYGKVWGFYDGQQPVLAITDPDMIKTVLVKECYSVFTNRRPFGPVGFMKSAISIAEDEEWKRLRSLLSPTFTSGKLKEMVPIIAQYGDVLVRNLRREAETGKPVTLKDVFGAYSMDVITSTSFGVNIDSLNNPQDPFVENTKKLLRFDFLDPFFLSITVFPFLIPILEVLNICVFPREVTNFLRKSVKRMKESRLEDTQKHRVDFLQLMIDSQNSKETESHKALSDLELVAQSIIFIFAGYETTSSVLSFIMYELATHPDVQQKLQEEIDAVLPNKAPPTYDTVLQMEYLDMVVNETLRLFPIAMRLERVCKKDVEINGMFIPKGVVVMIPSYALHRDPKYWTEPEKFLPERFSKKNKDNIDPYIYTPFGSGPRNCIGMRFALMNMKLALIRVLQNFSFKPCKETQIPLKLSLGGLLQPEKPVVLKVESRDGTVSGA
Description: Inhibition of human recombinant CYP3A4 using 7-BQ as substrate preincubated for 5 to 10 mins before substrate addition
Data set [20] concerns the target T1, Cytochrome P450 3A4. This is another data set of the same source.
Description: Inhibition of human recombinant CYP3A4 using DEF as substrate preincubated for 5 to 10 mins before substrate addition
In data set [21] the test system is Mus musculus. Briefly: Antiinflammatory activity in BALB/cJ mouse assessed as inhibition of LPS-induced GM-CSF production in lung homogenates at 200 mg/kg, ip administered 2 hrs prior to LPS challenge. The format is functional, organism-based. More on the design: dose 200 mg/kg.
The nature of data set [22]: Oral bioavailability in Sprague-Dawley rat at 10 mg/kg. The class given is ADME, organism-based. Conditions: in vivo.
The test system of data set [23] is Mus musculus. The data set is described as follows: Antiinflammatory activity in BALB/cJ mouse assessed as inhibition of LPS-induced CCL2 production in lung homogenates at 200 mg/kg, ip administered 2 hrs prior to LPS challenge. The format is functional, organism-based. More on the design: dose 200 mg/kg.
Data set [24] in a line: Volume of distribution at steady state in BALB/cJ mouse at 5 mg/kg, iv and 25 mg/kg, po. The format is ADME, organism-based. The following applies: in vivo, read-out: Vdss.
Data set [25] in a line: Clearance in Sprague-Dawley rat at 2 mg/kg, iv and 10 mg/kg, po. The format is ADME, organism-based. The following applies: in vivo.
For data set [26], the system named is Mus musculus. Briefly: Antiinflammatory activity in BALB/cJ mouse assessed as inhibition of LPS-induced CXCL1 production in lung homogenates at 200 mg/kg, ip administered 2 hrs prior to LPS challenge. The class given is functional, organism-based. Also noted: dose 200 mg/kg.
Data set [27] is described as follows: Half life in Sprague-Dawley rat at 2 mg/kg, iv and 10 mg/kg, po. The format is ADME, organism-based. Conditions: in vivo.
Data set [28] concerns Mus musculus. The data set is described as follows: Antiinflammatory activity in ip dosed BALB/cJ mouse assessed as decrease in LPS-induced total cell number in bronchoalveolar lavage fluid administered 2 hrs prior to LPS challenge measured after 24 hrs post LPS challenge. The format is functional, organism-based. Conditions: Lung.
Data set [29] concerns Mus musculus. The data set is described as follows: Antiinflammatory activity in BALB/cJ mouse assessed as inhibition of LPS-induced TNFalpha level in lung homogenates at 200 mg/kg, ip administered 2 hrs prior to LPS challenge. The class given is functional, organism-based. Also noted: dose 200 mg/kg.
Data set [30] concerns Mus musculus. Briefly: Antiinflammatory activity in BALB/cJ mouse assessed as inhibition of LPS-induced CXCL2 production in lung homogenates at 200 mg/kg, ip administered 2 hrs prior to LPS challenge. The format is functional, organism-based. Also noted: dose 200 mg/kg.
Data set [31] can be described thus: Half life in BALB/cJ mouse at 5 mg/kg, iv and 25 mg/kg, po. Conditions: in vivo. The class given is ADME, organism-based.
A short description of data set [32]: Oral bioavailability in BALB/cJ mouse at 25 mg/kg. Conditions: in vivo. The class given is ADME, organism-based.
Data set [33] in a line: Volume of distribution at steady state in Sprague-Dawley rat at 2 mg/kg, iv and 10 mg/kg, po. The format is ADME, organism-based. The following applies: in vivo, read-out: Vdss.
For data set [34], the system named is Mus musculus. The data set is described as follows: Antiinflammatory activity in BALB/cJ mouse assessed as inhibition of LPS-induced IL-6 production in lung homogenates at 200 mg/kg, ip administered 2 hrs prior to LPS challenge. The class given is functional, organism-based. Also noted: dose 200 mg/kg.
The test system of data set [35] is Mus musculus. The data set is described as follows: Antiinflammatory activity in BALB/cJ mouse assessed as inhibition of LPS-induced IL-1beta production in lung homogenates at 200 mg/kg, ip administered 2 hrs prior to LPS challenge. More on the design: dose 200 mg/kg. The class given is functional, organism-based.

Chain of Transcription factor Jun (Mus musculus) (P05627 whole entry): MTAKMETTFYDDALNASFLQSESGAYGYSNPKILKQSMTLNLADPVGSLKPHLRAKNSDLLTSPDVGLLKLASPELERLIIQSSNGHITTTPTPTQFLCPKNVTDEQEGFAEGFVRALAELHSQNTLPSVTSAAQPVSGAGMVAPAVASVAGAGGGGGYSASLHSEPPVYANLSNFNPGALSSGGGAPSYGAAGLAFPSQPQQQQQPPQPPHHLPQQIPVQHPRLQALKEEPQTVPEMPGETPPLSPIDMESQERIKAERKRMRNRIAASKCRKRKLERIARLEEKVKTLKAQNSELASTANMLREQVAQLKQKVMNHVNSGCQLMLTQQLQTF

The Cmax is the maximum level reached in the sampled fluid or tissue. One may read the inhibition as the relative decrease from the control value, in per cent. Regarding `CC[C@H]1OC(=O)[C@H](C)[C@@H](O[C@H]2C[C@@](C)(OC)[C@@H](O)[C@H](C)O2)[C@H](C)[C@@H](O[C@@H]2O[C@H](C)C[C@H](N(C)C)[C@H]2O)[C@](C)(O)C[C@@H](C)CN(C)[C@H](C)[C@@H](O)[C@]1(C)O` [AZITHROMYCIN], the result in data set [1] and in [5] was Active. Moreover, the MIC in data set [2] is 2 µg/mL (≈ 2.67 µM); in data set [10], 0.5 µg/mL (≈ 0.668 µM); in [11] it was under 0.125 µg/mL; in [13], under 0.125 µg/mL; in data set [15], under 0.125 µg/mL. The Cmax in data set [3] amounted to 670 ng/mL; in data set [6] it was 3200 ng/mL; in data set [7] it was 2010 ng/mL; in [9], 940 ng/mL. Further, the inhibition at 25 µM in data set [4] amounted to 74%. In addition, the viability at 24 h, 50 µM in [8] was 0%. Besides, the inhibition at 12 µM in [12] came to 61%. In addition, the inhibition at 50 µM in data set [14] worked out at 84%. Besides, in data set [16], the inhibition entry was “Active”.
In general, IC50 refers to the concentration that inhibits the measured activity by half. A higher IC50 goes with weaker potency. As a reminder, the bioavailability is the share of a dose that reaches the circulation, judged against a reference dose that is usually intravenous. Higher therefore signals good availability. For orientation: half-life means the time in which the quantity being followed falls by half. For `CC[C@H]1OC(=O)[C@H](C)[C@@H](O[C@H]2C[C@@](C)(OC)[C@@H](O)[C@H](C)O2)[C@H](C)[C@@H](O[C@@H]2O[C@H](C)C[C@H]3[C@H]2O/C(=N\C(C)C)N3C)[C@](C)(O)C[C@@H](C)CN(C)[C@H](C)[C@@H](O)[C@]1(C)O`, the figures for the clearance in data set [17] and in [25] were 19.8 mL/min/kg and 12.3 mL/min/kg, respectively. The Activity result in data set [18] and in data set [28] was “Dose-dependent effect” throughout. In addition, the figures for the IC50 in data set [19] and in data set [20] were over 10 µM and 7.8 µM, respectively. Also, the inhibition result in data set [21], in data set [23], in data set [26], in data set [29], in data set [30] and in data set [34] was “Active” in each case. The inhibition result in data set [35] was “Active”. Also, the inhibition at 25 µM in data set [4] is 90%. Besides, the bioavailability in [22] is 33%; in data set [32] it was 62%. Further, the figures for the Vd in data set [24] and in [33] were 23 L/kg and 8.6 L/kg, respectively. Further, in data set [8], the viability at 24 h, 50 µM is 9%. Further, the half-life is 20.3 h in [27] and 17.3 h in data set [31]. The compound also displayed an MIC in [11] of over 64 µg/mL. Besides, in data set [12], the inhibition at 12 µM was 79%. Moreover, the inhibition at 50 µM in data set [14] was 95%.
